Assay [1] has as its system gut microbiome. Description: Non pH-controlled anaerobic faecal cultures, gas production. The assay is classed as cell-based. Particulars: 6 donors, FIG. 1. As for the experimental part: Non pH-controlled, anaerobic, faecal cultures were investigated to evaluate the rate of gas production and cumulative gas production over 24 h in the presence of each test substrate.
(§1) All carbohydrates were tested in parallel, using the same faecal sample from a healthy donor. Fermentations were repeated using the faecal samples of each of 6 donors. Faeces in the absence of test substrate were used as the negative control in each run.

The subject of assay [2] is gut microbiome. As to the kind of experiment: pH-controlled anaerobic faecal cultures, organic acid production. It counts as cell-based. The following applies: FIG. 3. How it is done:
pH-controlled, anaerobic, faecal cultures were carried out to evaluate the impact of each test carbohydrate on gut microbiome composition and activity (organic acid production). The test carbohydrates were as follows: Inulin, Fructooligosaccharides (FOS), Xylooligosaccharides (XOS), gentiooligosaccharides (GeOS) and cellobiose.
as §1

Results on 1 compound are retold here after patent publication US20260014178A1, “COMPOSITIONS AND USES THEREOF” (Optibiotix Limited, priority 2022, published 2026).

Take `O=C[C@H](O)[C@@H](O)[C@H](O[C@@H]1O[C@H](CO)[C@@H](O)[C@H](O)[C@H]1O)[C@H](O)CO` [Cellobiose, cellobiose]: in the assay on gut microbiome [1], the “rate of gas production” value is “significantly higher compared to all test substrates”. In the assay with gut microbiome [2], the “lactate production / accumulation” value is “high levels”.
